Experiment [1] has as its system HL-60 cells differentiated into neutrophil-like cells. Put plainly: ROS scavenging in phorbol ester-stimulated HL-60 cells (L-012 luminescence), Example 6. It is filed as cell-based. The procedure:
An experiment was performed according to the method of Olga T. et al. (Toxicological Science, 76: 376, 2003). To be more specific, HL-60 cells differentiated into neutrophil-like cells were suspended in a culture medium at 2×10^6 cells/mL, and the resulting cell suspension was added to a 96-well plate at 50 μL/well. Then, a test substance was added to the well at 50 μL/well (final concentration: 0.03%, 0.1%, and 0.3% (w/v)). Further, the culture medium was added to the well as a negative control at 50 μL/well. […] As a background, the plate to which the culture medium was added in place of the phorbol ester was incubated in the same manner. After completion of the incubation, a luminescence intensity (CPS) was measured using a multilabel counter, ARVOSX 1420 (manufactured by PerkinElmer) and an ROS scavenging rate was calculated according to the following calculation equation. […] Incidentally, as the test substance, the following substances were used. Further, as a positive control substance, 20 nM staurosporine (a known phorbol ester signal inhibitor) was used.

A further experiment concerns AGE production. Put plainly: Inhibition of AGE production (glucose and bovine serum albumin, fluorescence), Example 5. It is filed as biochemical. Particulars: positive control substance 1 mM; 37° C., 4 weeks. How it is done:
An experiment was performed according to the method of T. Kiho et al. (Biosci Biotechnol Biochem, 68: 200, 2004). To be more specific, a test substance was dissolved in 0.1 M phosphate buffer (pH 7.4) containing 500 mM glucose and 10 mg/mL bovine serum albumin at a concentration of 0.1% (w/v), and the resulting solution was incubated at 37° C. for 4 weeks. After 4 weeks, a value of fluorescence emitted by AGE was measured at an excitation light wavelength of 355 nm and a measurement wavelength of 460 nm, and the amount of produced AGE was determined, and then, an inhibition rate of AGE production was calculated according to the following calculation equation. Inhibition rate of AGE production(%)=[1−(Fluorescence value when test substance was added)/(Fluorescence value when test substance was not added)]×100 [Equation 1] (Experimental Results)
Incidentally, as the test substance, the following substances were used. Further, as a positive control substance, 1 mM aminoguanidine (a known AGE production inhibitor) was used.

Experiment [2] relates to peritoneum (ultrafiltration capacity). Put plainly: Peritoneal equilibration test after repeated peritoneal dialysis fluid administration (water removal rate), Example 3. It is filed as in vivo, Wistar male rat. The conditions noted are these: 0.1% (w/v) in Midpeliq 250, into the peritoneal cavity once daily 15 mL/body for 7 days; vs control group; FIG. 1; CSC 10 kDa by method of Example 2. The procedure: To a Wistar male rat at 8 weeks of age, Midpeliq 250 (trade name, a peritoneal dialysis fluid containing glucose at a concentration of 2.5% (w/v) manufactured by Terumo Corporation) in which a test substance was dissolved at a concentration of 0.1% (w/v) was repetitively administered into the peritoneal cavity once daily at 15 mL/body for 7 days under ether anesthesia. To a control group (Control), Midpeliq 250 was administered in the same manner. On the next day after the final administration, a peritoneal equilibration test was performed, and the peritoneal function was evaluated. To be more specific, Midpeliq 250 was injected into the peritoneal cavity at 60 mL/kg, and 4 hours thereafter, the fluid remaining in the peritoneal cavity was recovered. The amount of the recovered fluid was measured, and the ultrafiltration capacity (water removal rate) of the peritoneum was evaluated.

Where [3] appears, read: Table 4, test substance 0.1% (w/v), CSC 10 kDa by method of Example 1.

Regarding `CN[C@@H]1C[C@H]2O[C@@](C)([C@@H]1OC)n1c3ccccc3c3c4c(c5c6ccccc6n2c5c31)C(=O)NC4` [Staurosporine, staurosporine, reference compound], the ROS scavenging rate in experiment [1] (Table 4, positive control substance 20 nM) turned out to be 97.4%; in experiment [1] (Table 5, positive control substance 20 nM) it was 98.1%.
As for `N=C(N)NN` [Aminoguanidine, aminoguanidine], in the experiment on AGE production, the “Inhibition rate of AGE production” value was 52.7%.
Chondroitin, sodium salt [Ch 5 kDa] had an ROS scavenging rate in experiment [1] (setting [3]) of 13.6%.
With “Chondroitin sulfate E, sodium salt (squid cartilage) [CSE 75 kDa]”, the ROS scavenging rate in experiment [1] (setting [3]) is listed as 21.9%.
In the case of “Chondroitin sulfate C, sodium salt (shark cartilage), SG [CSC 30 kDa]”, in experiment [2], the “effect of protecting the peritoneum (action of inhibiting a decrease in water removal rate)” value was “statistically significant effect was not observed”. The compound also yielded an ROS scavenging rate in experiment [1] (setting [3]) of 5.0%.
In turn, “Chondroitin sulfate A, sodium salt (whale cartilage), SG [CSA 30 kDa]” returned an ROS scavenging rate in experiment [1] (setting [3]) of 33.4%.

The values are drawn from patent publication US9149572B2, “Chondroitin sulfate having decreased molecular weight and use thereof” (Seikagaku Corporation, priority 2007, dated 2015).
